Patent US5626883A, “Ascorbic acid compositions providing enhanced human immune system activity” (priority 1994, dated 1997)

How the values were obtained:
clinical [1] = details: human, in vivo, 60 mg/kg
Protocol: (§1) Lymphocytes were prepared from fresh heparinized peripheral venous blood by Ficoll-Hypaque density gradient centrifugation (Litton Bionetics, Rockville, Md.). Cells were washed three times with Hanks' balanced salt solution (HBSS), and resuspended to a concentration of 10×10^6 cells/ml in a complete medium (CM), that consisted of RPMI-1640 supplemented with 10% fetal calf serum and 1% antibiotics (100 U penicillin and 100 μg/ml streptomycin) and within an hour of isolation cells were used for different assays.

[2] = system: peripheral blood leukocyte (PBL); experiment: clinical; details: human, in vivo, 0 min
Protocol: as §1

NK cell population = NK cell population and sub-populations by flow cytometry, Example 1; assay type: in vivo, human; details: 0 and 24 hours post treatment; Anti-CD56 and Anti-CD3
Protocol: NK cell subset enumeration was carried out in ascorbate-treated and non-treated cell populations. A single laser flow cytometer (Epics Profile: Coulter Epics, Inc., Hialeah, Fla.), which discriminates forward and right-angle light scatter, as well as two colors, was used with an appropriate software package (Quad Stat: Coulter). Mononuclear cell populations were determined by two-color direct immunofluorescence, by using a whole-blood staining technique with the appropriate monoclonal antibody and flow cytometry. […]
lymphocyte markers, bit maps were set on the lymphocyte population of the forward-angle light scatter versus a 90° light scatter histogram. The percentage of positively stained cells for each marker pair, as well as the percentage of doubly stained cells, was determined. Estimates of the absolute numbers of lymphocyte positive for the respective surface markers were determined by multiplying peripheral lymphocyte cell count by the percentage of cells positive for each surface marker.
Total NK cell population and its sub-populations were also examined in this example. The total NK cell population and its sub-populations were determined both post-treatment with ascorbic acid alone and post-treatmentwith the formulation of the present invention by flow cytometry, using Anti-CD56 and Anti-CD3 monoclonal antibodies, respectively.

K562 tumor target cells [3] = experiment: NK cell activity with repeated administration every four hours, Example 2; assay type: in vivo, human; details: 15 mg/kg ascorbic acid or biologically equivalent amount every four hours, twenty-four hours
Protocol: (§2) Chromium-release Assay for measuring NK cell activity:
(§3) A standard 4-hr ^51 Cr-release assay was employed. Briefly, 1×10^4 ^51 Cr-labelled K562 tumor target cells in
(§4) 0.1 ml CM were added to different wells of a microtiter plate. Effector cells were then pipetted into quadruplicate wells to give effector: target (E:T) ratios of 6:1, 12:1, 25:1 and 50:1. After a 4-hr incubation at 37° C., the microtiter plates were centrifuged at 1400 rpm for 5 min and 0.1 ml of supernatant from each well was collected and counted in a gamma counter. The percentages of isotope released were calculated by the following formula: [formula]
(§5) Total release was measured by adding […] Triton X-100 to designated wells. Lytic units (LU) were calculated from effector titration curves. One LU was defined as the number of effector cells required to achieve 20% lysis.

clinical [4] = details: human, plasma, 60 mg/kg
Protocol: Twenty-two healthy subjects were randomly selected for this example. The subjects ranged in age from 20 to 24 years, with a mean of 22 years. The subjects had not ingested any medications for at least two weeks before participation in the study.
Clearance and the uptake of ascorbic acid was measured in the plasma and mononuclear cell, respectively.
Briefly described, 5×10^6 cells were suspended in 0.2 ml of PBS, sonicated for 30 seconds, and 1 ml of 5% trichloroacetic acid (TCA) was added. The mixture was centrifuged to remove the precipitates and the supernatant was used to measure the level of ascorbic acid. From the mixture, 1.2 ml of this supernatant or 0.5 ml plasma was mixed with 0.4 ml of Dinitrophenyl-hydrazine-Thiourea-Copper (DCT) reagent, incubated at 37° C. for 3 hours, then transferred to an ice-water bath for 10 minutes. Then 2 ml of cold 12M H2 SO4 was added and the mixture was kept at room temperature for 20 min.

glutathione = details: 500 mg/day; cited from earlier work
[5] = system: breast and gastric cancer; details: cited from earlier work
[6] = system: skin tumors and estrogen-induced renal tumors; details: in vivo; cited from earlier work
K562 tumor target cells [7] = experiment: NK cell cytotoxic activity (4-hr 51Cr-release assay) before and after oral administration to healthy subjects, Example 1; assay type: in vivo, human
Protocol: This example compares the effect of ascorbic acid and the formulation of the present invention on NK cell activity, NK cell population, and peripheral blood leukocyte (PBL) uptake.
as §1, §2, §3, §4, §5
In FIG. 1A the NK cell activity is represented in lytic units (LU) on the vertical axis with time being represented in hours on the horizontal axis.
In FIG. 1B, the hollow bars represent the subject's NK cell activity before administration of either ascorbic acid alone or the formulation of the present invention.

concentration at 1 h (clinical [1]): 64 ng/mL
concentration at 2 h (clinical [1]): 101 ng/mL
concentration at 4 h (clinical [1]): 95 ng/mL
concentration at 8 h (clinical [1]): 79 ng/mL
concentration at 24 h (clinical [1]): 74 ng/mL
concentration at 48 h (clinical [1]): 49 ng/mL
mean (M±SD) uptake of ascorbic acid by 5×10^6 white blood cells [2]: 5.1 μg/dl
concentration at 1 h (clinical [4]): ~42000 ng/mL
SMILES: O=C1O[C@H]([C@@H](O)CO)C(O)=C1O [ascorbic acid, 3-oxo-1-gulofuranolactone]
percentages of total NK cell population, or its sub-populations (NK cell population): no significant effect
NK cell activity (K562 tumor target cells [3]): repeated suppression of NK cell activity
plasma concentrations of glutathione (glutathione): increases plasma concentrations of glutathione
antitumor activity [5]: demonstrates antitumor activity against breast and gastric cancer
tumor regression [6]: causes regression of skin tumors and estrogen-induced renal tumors in vivo
NK cell activity (K562 tumor target cells [7]; 60 mg/kg ascorbic acid, twenty-four hours post-administration, FIG. 1A): 90 LU
NK cell activity (K562 tumor target cells [7]; 60 mg/kg, forty-eight hours, FIG. 1A): declined to near pre-administration levels
NK cell activity change (K562 tumor target cells [7]; 60 mg/kg, one to two hours after administration, FIG. 1A): transitory decrease in NK cell activity
time of recovery of NK cell activity to pre-administration levels (K562 tumor target cells [7]; 60 mg/kg, post-administration, FIG. 1A): about four
period of inhibition of NK cell activity (K562 tumor target cells [7]; early transient phase, followed by enhancement): two to four
overall suppression of NK cell activity (summary) (K562 tumor target cells [7]; shortly after administration): transient suppression or inhibition of NK cell activity
suppression of NK cell activity (K562 tumor target cells [7]; zero to four hours post-administration, FIG. 1A): transient suppression of NK cell activity
